Earlier results as cited in US5858398A, “Microparticular pharmaceutical compositions” (Isomed Inc., priority 1996, dated 1999).

Tested on: intestinal membranes

## sn-1-acyl-3-glycerophosphorylcholine [lyso-PC]
  concentrations inducing histopathological damage to intestinal membranes: 0.01-1 mM
